This is an account of results in article PMC4457528, “Identification of Novel Small Molecule Inhibitors of Oncogenic RET Kinase” (PLoS ONE, 2015).

Like-named read-outs stand apart in the source and are kept apart here. Some results are limits rather than exact numbers.

Holding throughout (test): KinomeScan kinase panel, single concentration 10 µM
Holding throughout (assay type): binding

For assay [1], the target named is T1, KinomeScan kinase panel (Homo sapiens, UniProt O00506).
T1 construct: purchased DiscoveRx (KinomeScan)
The note with it: kinase YSK1; 10 µM; read-out: score (%).

Assay [2] concerns the target T2, KinomeScan kinase panel (Homo sapiens, UniProt P00533, DEL746-750).
T2 construct: purchased DiscoveRx (KinomeScan)

In assay [3] the target is T3, KinomeScan kinase panel (Homo sapiens, UniProt P21802).
T3 construct: purchased DiscoveRx (KinomeScan)
Conditions: FGFR2, 10 µM; read-out: score (%).

Assay [4] deals with T4, KinomeScan kinase panel (Homo sapiens, UniProt P22607).
T4 construct: purchased DiscoveRx (KinomeScan)
Conditions: FGFR3, 10 µM; read-out: score (%).

Assay [5] has as its target T5, KinomeScan kinase panel (Homo sapiens, UniProt P36894).
T5 construct: purchased DiscoveRx (KinomeScan)
Conditions: BMPR1A, 10 µM; read-out: score (%).

In assay [6] the target is T6, KinomeScan kinase panel (Homo sapiens, UniProt P37023).
T6 construct: purchased DiscoveRx (KinomeScan)
Conditions: ACVRL1, 10 µM; read-out: score (%).

Assay [7] addresses T7, KinomeScan kinase panel (Homo sapiens, UniProt Q13546).
T7 construct: purchased DiscoveRx (KinomeScan)
T7 sequence (Q13546 1-671): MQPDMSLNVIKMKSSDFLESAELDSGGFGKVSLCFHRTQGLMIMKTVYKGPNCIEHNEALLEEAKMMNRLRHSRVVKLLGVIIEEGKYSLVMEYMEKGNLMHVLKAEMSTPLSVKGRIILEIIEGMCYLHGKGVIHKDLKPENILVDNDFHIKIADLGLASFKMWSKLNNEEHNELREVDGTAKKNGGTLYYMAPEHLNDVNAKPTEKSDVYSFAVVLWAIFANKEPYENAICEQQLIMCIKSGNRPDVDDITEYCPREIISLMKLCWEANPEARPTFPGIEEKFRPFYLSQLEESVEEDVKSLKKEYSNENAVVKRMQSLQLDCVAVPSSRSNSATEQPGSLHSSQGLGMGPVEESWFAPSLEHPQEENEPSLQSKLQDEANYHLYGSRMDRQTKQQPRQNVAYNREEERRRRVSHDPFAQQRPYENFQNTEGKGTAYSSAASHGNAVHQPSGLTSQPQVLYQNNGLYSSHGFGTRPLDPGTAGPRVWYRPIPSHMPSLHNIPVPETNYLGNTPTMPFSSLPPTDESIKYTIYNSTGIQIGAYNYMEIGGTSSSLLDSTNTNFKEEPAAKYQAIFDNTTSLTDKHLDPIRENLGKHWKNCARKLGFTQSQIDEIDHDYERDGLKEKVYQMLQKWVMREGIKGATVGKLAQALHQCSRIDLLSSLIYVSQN
The note with it: read-out: score (%).

Assay [8] has as its target T8, KinomeScan kinase panel (Homo sapiens, UniProt Q6P3R8).
T8 construct: purchased DiscoveRx (KinomeScan)
T8 sequence (Q6P3R8 1-708): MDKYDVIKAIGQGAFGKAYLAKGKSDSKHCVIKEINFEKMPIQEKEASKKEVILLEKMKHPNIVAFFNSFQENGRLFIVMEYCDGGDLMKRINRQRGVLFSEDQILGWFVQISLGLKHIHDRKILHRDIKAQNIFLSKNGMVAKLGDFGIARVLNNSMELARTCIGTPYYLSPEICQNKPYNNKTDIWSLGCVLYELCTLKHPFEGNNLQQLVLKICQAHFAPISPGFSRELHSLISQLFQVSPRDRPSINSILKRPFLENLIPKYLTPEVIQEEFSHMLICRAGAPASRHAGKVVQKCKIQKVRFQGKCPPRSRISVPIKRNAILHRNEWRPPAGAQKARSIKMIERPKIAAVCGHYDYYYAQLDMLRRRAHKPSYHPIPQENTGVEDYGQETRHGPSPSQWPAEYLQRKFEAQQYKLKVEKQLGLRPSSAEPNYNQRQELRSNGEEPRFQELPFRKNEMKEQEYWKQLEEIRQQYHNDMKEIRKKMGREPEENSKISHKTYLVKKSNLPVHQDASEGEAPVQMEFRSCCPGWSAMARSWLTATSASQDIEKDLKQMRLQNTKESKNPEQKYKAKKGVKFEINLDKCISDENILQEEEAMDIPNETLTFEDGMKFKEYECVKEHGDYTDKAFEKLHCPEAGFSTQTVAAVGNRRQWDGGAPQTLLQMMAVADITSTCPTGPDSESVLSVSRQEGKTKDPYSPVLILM
The note with it: NEK5, 10 µM; read-out: score (%).

Assay [9] concerns the target T9, KinomeScan kinase panel (Homo sapiens, UniProt Q9BYT3).
T9 construct: purchased DiscoveRx (KinomeScan)
The note with it: read-out: score (%).

Assay [10] has as its target T10, KinomeScan kinase panel (Homo sapiens, UniProt Q9H093).
T10 construct: purchased DiscoveRx (KinomeScan)
T10 sequence (Q9H093 1-628): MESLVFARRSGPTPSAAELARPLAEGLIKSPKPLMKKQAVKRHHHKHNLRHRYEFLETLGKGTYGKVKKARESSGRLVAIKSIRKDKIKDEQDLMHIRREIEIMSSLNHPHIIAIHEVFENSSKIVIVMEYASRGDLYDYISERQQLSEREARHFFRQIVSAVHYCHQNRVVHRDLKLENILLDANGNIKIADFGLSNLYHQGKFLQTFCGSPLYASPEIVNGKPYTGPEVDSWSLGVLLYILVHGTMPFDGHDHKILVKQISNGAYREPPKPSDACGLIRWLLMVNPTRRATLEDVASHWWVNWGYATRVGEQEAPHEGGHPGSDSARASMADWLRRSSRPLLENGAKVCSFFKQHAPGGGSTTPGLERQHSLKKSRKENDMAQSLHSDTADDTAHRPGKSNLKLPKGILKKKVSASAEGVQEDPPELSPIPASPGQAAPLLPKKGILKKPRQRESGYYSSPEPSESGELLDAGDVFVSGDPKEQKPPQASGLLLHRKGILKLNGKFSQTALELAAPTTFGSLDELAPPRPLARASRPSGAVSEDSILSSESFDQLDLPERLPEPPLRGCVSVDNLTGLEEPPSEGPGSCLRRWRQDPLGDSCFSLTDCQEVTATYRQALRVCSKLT
Conditions: 10 µM.

T5 sequence (P36894 24-532): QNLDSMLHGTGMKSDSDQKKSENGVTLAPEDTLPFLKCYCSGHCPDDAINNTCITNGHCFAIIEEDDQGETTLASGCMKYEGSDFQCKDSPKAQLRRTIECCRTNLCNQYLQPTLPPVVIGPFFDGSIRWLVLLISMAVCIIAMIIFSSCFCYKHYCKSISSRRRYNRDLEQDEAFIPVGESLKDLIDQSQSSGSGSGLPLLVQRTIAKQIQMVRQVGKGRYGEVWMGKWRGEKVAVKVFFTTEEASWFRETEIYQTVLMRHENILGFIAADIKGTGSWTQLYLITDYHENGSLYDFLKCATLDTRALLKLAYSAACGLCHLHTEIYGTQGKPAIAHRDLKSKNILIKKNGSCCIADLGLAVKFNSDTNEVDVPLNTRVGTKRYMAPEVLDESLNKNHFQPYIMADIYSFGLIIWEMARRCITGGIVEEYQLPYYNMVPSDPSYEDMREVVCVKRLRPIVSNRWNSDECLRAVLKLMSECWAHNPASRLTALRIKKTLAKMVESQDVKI
T9 sequence (Q9BYT3 whole entry): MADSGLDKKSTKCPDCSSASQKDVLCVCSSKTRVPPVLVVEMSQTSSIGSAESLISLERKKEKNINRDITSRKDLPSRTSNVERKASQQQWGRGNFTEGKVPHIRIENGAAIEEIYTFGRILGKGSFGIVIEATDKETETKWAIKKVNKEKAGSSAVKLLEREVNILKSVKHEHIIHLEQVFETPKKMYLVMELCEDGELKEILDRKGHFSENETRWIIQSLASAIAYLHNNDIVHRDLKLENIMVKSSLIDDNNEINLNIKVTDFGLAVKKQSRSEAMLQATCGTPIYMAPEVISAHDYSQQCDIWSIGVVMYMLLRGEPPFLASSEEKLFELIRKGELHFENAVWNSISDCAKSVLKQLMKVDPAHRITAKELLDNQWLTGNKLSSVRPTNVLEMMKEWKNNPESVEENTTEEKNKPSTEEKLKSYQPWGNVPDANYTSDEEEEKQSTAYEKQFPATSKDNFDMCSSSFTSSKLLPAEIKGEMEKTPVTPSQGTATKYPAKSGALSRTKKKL
T2 sequence (P00533 with tags, fused parts or gaps DEL746-750): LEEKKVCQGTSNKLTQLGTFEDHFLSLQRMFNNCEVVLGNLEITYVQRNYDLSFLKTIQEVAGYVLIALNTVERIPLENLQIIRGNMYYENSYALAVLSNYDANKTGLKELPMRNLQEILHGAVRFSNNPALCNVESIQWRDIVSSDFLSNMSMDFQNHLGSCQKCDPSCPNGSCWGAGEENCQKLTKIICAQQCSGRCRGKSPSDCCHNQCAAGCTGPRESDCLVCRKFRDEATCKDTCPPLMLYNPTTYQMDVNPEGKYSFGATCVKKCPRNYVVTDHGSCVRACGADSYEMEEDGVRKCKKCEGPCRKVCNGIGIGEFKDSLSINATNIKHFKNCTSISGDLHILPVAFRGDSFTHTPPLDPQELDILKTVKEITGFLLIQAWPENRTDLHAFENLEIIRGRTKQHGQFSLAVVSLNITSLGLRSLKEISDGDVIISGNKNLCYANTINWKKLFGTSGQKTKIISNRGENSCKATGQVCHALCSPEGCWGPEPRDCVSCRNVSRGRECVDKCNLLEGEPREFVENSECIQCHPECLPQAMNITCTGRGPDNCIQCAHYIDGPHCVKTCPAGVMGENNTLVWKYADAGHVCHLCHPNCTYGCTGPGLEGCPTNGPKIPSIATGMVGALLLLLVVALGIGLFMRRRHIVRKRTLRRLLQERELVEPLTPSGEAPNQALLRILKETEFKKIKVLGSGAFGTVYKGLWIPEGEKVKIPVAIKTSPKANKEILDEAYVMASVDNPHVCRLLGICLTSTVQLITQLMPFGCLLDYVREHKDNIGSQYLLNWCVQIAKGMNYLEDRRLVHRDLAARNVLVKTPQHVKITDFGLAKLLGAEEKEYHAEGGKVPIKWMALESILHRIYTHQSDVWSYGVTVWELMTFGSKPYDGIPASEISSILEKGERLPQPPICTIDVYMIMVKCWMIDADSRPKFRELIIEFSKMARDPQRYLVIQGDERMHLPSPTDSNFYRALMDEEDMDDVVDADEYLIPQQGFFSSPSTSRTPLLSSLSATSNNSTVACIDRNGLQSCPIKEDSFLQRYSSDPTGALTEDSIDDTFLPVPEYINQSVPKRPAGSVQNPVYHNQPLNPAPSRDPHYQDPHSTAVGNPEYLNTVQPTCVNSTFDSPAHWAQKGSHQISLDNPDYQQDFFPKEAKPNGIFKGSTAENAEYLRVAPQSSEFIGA
T6 sequence (P37023 22-503): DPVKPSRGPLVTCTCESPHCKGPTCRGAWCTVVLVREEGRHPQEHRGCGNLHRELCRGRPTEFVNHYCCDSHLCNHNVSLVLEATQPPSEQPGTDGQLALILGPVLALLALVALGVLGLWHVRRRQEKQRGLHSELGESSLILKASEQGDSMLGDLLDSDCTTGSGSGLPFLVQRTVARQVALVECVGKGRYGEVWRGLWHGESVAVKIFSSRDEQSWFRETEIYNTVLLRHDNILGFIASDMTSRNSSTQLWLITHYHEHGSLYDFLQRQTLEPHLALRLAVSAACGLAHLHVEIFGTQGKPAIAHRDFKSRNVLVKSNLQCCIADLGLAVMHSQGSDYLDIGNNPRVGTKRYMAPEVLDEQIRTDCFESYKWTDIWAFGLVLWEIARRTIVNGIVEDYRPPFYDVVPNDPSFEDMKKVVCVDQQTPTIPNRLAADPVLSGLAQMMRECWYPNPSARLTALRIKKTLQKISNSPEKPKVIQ
T4 sequence (P22607 23-806): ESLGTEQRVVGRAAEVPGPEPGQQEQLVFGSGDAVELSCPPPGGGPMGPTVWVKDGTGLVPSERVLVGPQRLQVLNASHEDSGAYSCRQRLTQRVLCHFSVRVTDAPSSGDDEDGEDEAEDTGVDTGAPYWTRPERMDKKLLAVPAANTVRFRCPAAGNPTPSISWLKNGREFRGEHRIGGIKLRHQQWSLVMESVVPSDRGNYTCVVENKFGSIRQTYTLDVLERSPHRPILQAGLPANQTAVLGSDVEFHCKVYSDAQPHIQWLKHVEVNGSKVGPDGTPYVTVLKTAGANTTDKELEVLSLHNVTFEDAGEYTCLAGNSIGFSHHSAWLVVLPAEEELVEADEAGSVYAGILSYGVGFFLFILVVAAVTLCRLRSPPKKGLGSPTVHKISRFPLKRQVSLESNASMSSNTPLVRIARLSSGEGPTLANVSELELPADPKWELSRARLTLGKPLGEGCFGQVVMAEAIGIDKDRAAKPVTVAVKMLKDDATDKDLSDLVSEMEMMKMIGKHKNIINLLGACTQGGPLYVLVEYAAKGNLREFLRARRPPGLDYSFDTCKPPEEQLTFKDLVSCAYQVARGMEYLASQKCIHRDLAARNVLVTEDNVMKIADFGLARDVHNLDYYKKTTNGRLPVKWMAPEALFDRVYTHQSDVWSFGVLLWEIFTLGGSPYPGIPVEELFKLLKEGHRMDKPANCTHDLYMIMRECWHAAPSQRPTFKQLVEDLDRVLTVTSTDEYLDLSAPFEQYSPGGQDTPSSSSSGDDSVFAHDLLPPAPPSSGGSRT
T3 sequence (P21802 22-821): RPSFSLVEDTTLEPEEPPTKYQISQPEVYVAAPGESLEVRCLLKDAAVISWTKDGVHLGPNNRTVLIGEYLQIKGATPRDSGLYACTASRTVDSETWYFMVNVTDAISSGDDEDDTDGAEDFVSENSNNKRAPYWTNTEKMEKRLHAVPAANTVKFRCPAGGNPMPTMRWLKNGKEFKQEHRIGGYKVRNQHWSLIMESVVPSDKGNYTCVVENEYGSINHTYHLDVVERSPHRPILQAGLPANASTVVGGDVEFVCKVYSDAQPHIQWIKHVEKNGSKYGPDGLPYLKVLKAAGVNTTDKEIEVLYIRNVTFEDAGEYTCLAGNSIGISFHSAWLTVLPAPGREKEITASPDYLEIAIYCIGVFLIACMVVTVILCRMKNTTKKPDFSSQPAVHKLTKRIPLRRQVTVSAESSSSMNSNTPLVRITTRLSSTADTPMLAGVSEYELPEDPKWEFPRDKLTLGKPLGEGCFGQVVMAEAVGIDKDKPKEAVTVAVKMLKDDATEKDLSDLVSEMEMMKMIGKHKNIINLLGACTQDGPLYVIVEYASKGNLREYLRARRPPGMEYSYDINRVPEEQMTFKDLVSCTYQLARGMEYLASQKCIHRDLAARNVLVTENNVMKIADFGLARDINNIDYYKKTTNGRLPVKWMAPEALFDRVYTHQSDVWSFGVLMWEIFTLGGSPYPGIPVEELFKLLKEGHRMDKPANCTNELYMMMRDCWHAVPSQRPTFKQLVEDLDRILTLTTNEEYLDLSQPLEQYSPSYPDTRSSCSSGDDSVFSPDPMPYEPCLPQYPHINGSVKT
T1 sequence (O00506 whole entry): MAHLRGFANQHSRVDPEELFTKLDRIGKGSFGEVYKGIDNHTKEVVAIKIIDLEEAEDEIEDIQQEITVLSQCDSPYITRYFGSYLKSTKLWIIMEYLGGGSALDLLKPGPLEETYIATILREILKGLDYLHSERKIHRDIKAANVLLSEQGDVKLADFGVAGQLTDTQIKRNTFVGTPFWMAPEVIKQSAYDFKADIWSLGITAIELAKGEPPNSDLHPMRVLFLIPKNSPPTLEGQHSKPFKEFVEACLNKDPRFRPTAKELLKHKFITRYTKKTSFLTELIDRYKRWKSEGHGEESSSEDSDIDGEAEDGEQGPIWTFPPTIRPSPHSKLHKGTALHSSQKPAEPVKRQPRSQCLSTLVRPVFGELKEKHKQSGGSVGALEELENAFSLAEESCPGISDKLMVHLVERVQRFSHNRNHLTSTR

Take `CCN1CCN(Cc2ccc(NC(=O)c3ccc(C)c(NC(=O)c4cncc(-c5cccs5)c4)c3)cc2C(F)(F)F)CC1` [ALW-II-41-27]: the remaining binding at 10 µM is above 30% in assay [1]; 4.3% in assay [3]; above 30% in [4]; above 30% in [5]; above 30% in assay [6]; 0.45% in [7] (RIPK1, 10 µM). The remaining binding at 10 µM was above 30% in assay [8] and above 30% in assay [9] (kinase STK33, 10 µM). For the same compound, the “score (%)” value in [2] was 1.2%; in assay [10] (kinase SNARK) it was “nb (Hits values higher than 30% were considered negative (no binding: nb))”.

For the compound `CCN1CCN(Cc2ccc(NC(=O)c3ccc(C)c(/C=C/c4cnc5[nH]ccc5c4Cl)c3)cc2C(F)(F)F)CC1` [HG-6-63-01, (E)-3-(2-(4-chloro-1H-pyrrolo[2,3-b]pyridin-5-yl)vinyl)-N-(4-((4-ethylpiperazin-1-yl)methyl)-3-(trifluoromethyl)phenyl)-4-methylbenzamide], the remaining binding at 10 µM in [1] was above 30%; in assay [3], 1.6%; in assay [4], 2.4%; in assay [5], above 30%; in assay [6], above 30%; in assay [7] (RIPK1, 10 µM) it was 0.05%. The remaining binding at 10 µM in [8] amounted to 7%; in assay [9] (STK33, 10 µM), 23%. In addition, the “score (%)” value was 0.9% in [2] (EGFR(E746-A750del), 10 µM) and “nb (Hits values higher than 30% were considered negative (no binding: nb))” in [10] (SNARK).

As for `CCN1CCN(Cc2ccc(NC(=O)c3ccc(C)c(C#Cc4cccnc4)c3)cc2C(F)(F)F)CC1` [XMD15-44], the remaining binding at 10 µM in assay [1] was 16%; in assay [3], 0.5%; in assay [4], 0.3%; in [5], above 30%; in [6], above 30%; in assay [7] (kinase RIPK1, 10 µM), 0.05%. Moreover, the remaining binding at 10 µM in assay [8] was 4.8%; in assay [9] (kinase STK33, 10 µM) it was 14%. Besides, the “score (%)” value in assay [2] (EGFR(E746-A750del), 10 µM) is 1.8%; in assay [10] (kinase SNARK), 99%.
